In patent US9440926B2, “Antiviral compounds and methods” (Biotron Limited, priority 2005, dated 2016):
Like-named read-outs stand apart in the source and are kept apart here.

Legend:
Format in all cases: cell-based
HIV-1 strain Ba-L = test: HIV-1 Ba-L growth inhibition in primary macrophages (p24 ELISA); conditions: for IC50: Human immunodeficiency virus 1, BAL, Primary macrophage; for AI (Antiviral Index): calculated by formula from TC50 and IC50, HIV-1Ba-L in primary macrophages
Experimental: The inhibition specifically of HIV-1 growth by the compounds of the invention was tested in primary macrophages in vitro using a method similar to that used to assess antibody neutralization (VanCott T C et al (1999)). In the present case, the laboratory adapted HIV-1 strain Ba-L was used, which is known to infect macrophages.
Peripheral Blood Mononuclear Cells (PBMC) were prepared from healthy donors using buffy-coat packs obtained from the Australian Red Cross Blood Service (ARCBS). Blood was received the day following donation, and had been depleted of serum and platelets, leaving a small volume (less than 100 mL) of concentrated leukocytes.
Leukocytes were separated from blood cells and granulocytes by density gradient centrifugation (Ficoll Paque) and washed extensively in PBS^− (without Ca/Mg) to remove platelets. Recovered cells were allowed to adhere to plastic tissue culture flasks (Becton Dickinson) for 2 hr, 37° C., 5% CO2, in media (DMEM (high)/10% AB serum/50 ug/mL gentamicin/2 mM L-glutamine) during which time the myeloid cells formed an adherent monolayer leaving lymphocytes unattached.
Non-adherent lymphocytes were removed by washing with warm PBS^+ (with Ca/Mg) and were generally discarded. In some cases those cells were recovered and frozen in media/10% DMSO for use in viral stock infections. The adherent monocytes were recovered by scraping gently with a plastic cell scraper. The myeloid cells were then plated into 96-well plates at a cell concentration of 1.5×10^6/mL, and allowed to fully differentiate over a period of 14 days.
Macrophages were allowed to differentiate over a 14 day period, with media changes as required. On day 14, cells were infected in the presence of decreasing concentrations of BIT compounds over a range 0-10 μM. Samples of 25 μL culture supernatants were removed from each well on day 7 and fresh media plus compound dilution was added.
After 7 days the samples with and without compound were analysed to assess the level of virus present in the wells, using a p24 ELISA (Innotest). Virus levels in samples were converted to “percentage of control virus growth” values based on the controls (containing no compound). From that dose response curve (example FIG. 1) the IC50 was calculated and used as a measure of compound anti-HIV activity.

[1] = Cytotoxicity to cells in the viral inhibition assay (MTT assay); conditions: human, primary human macrophages, read-out: TC50 (the source's name)
Experimental: The toxicity of test compounds to cells in the viral inhibition assay was determined using the MTT assay (Pauwels R, et al. (1988); D'Cruz O J et al. (1999); Joo H. (2003)). This method utilises Thiazolyl Blue (MTT), which is added to the cell culture (100 ug/well), and incubated for 4-5 hours whilst the live, metabolically active cells convert the chemical to its purple coloured metabolite, which forms intracellular crystals. The purple colour is measured colourimetrically (570-590 nm) once cells have been permeabilised using acidified isopropanol containing 10% triton X-100. The most intense colour development occurs in wells where the metabolising cells are most numerous. […] Those values were estimated manually from the Percentage Viability vs Concentration dose response curves (FIG. 1). The compound toxicity to cells in culture was taken into account in inhibition experiments and in separate experiments involving increased concentrations of compound. TC50 values were estimated in separate experiments (not shown) where concentrations of compound were greater.

Vpu = biological target: T1, Vpu (Human immunodeficiency virus type 1 group M subtype B, UniProt P05919); test: Bacterial bioassay, Vpu; conditions: mean bacterial bioassay score; Vpu of HIV
T1 construct: expressed in transfected cells
T1 sequence (P05919 whole entry): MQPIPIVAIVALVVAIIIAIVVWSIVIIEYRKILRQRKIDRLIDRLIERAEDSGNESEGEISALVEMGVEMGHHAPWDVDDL
Text: (§1) The bacterial bioassay method used in the present example to test the anti-viral activity of the compounds against different viral targets was described in detail in PCT/2004/000866, incorporated in its entirety herein by reference. Vpu, p7 and M referred to in the table are small membrane proteins encoded by HIV, HCV and Dengue viruses, respectively, which have functional activities supporting viral growth and/or replication.

HCV p7 = biological target: T2, HCV p7 (Hepatitis C virus genotype 1a, UniProt P27958); test: Bacterial bioassay, HCV p7; set-up: scale not given here; conditions: mean bacterial bioassay score; p7 of HCV
T2 construct: expressed in transfected cells
T2 sequence (P27958 747-809): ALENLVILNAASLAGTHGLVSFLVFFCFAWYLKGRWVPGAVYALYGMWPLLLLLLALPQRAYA
Text: as §1

Den M = biological target: T3, Den M (Dengue virus type 1, UniProt P33478); test: Bacterial bioassay, Den M; set-up: scale not given here; conditions: mean bacterial bioassay score; M protein of Dengue virus
T3 construct: expressed in transfected cells
T3 sequence (P33478 206-280): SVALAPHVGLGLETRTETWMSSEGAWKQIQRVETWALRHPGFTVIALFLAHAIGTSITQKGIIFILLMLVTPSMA
Text: as §1

[2] = additional compounds, same assay system (HIV-1Ba-L, primary macrophages), estimated from dose response curves, read-out: Estimated IC50
[3] = additional compounds, same assay system, MTT
[4] = 168 h, against HIV-1Ba-L in primary macrophages, p24 ELISA after 7 days, estimated from dose response curves (FIG. 1), 0-10 μM, read-out: IC50
[5] = 50% cell viability, MTT assay, estimated in separate experiments at greater compound concentrations

Row | SMILES | IC50 (HIV-1 strain Ba-L; [2]) | CC50 [1, 3] | Average Bacterial Assay Score, Vpu (Vpu) | Average Bacterial Assay Score, HCV p7 (HCV p7) | Average Bacterial Assay Score, Den M (Den M) | IC50 (HIV-1 strain Ba-L; [4]) | AI (Antiviral Index) (HIV-1 strain Ba-L) | CC50 [1, 5]
1 | N=C(N)NC(=O)c1ccc2c(-c3cccs3)cccc2c1 [BIT308, (5-(thien-2-yl)-2-napthoyl)guanidine] | < 0.63 µM | 10 to 50 µM | 0.45 | 0.08 | 2.40 |  |  | 
2 | N=C(N)NC(=O)/C=C/c1cccc2c1OCO2 [BIT217, 2,3-methylenedioxycinnamoyl guanidine] |  |  | 1.8 | 1.0 |  | 1.1 µM | >91 | > 100 µM
3 | Cc1cccc2cc(C(=O)NC(=N)N)ccc12 [BIT218, 5-methyl-2-napthoylguanidine] |  |  | 1.8 | 1.7 | 1.3 | 1.56 µM | >192 | > 300 µM
4 | COc1ccc2cc(C(=O)NC(=N)N)ccc2c1Br [BIT223, 5-bromo-6-methoxy-2-napthoylguanidine] |  |  | 0 | 0.0 |  | 0.3 µM | >1000 | > 300 µM
5 | N=C(N)NC(=O)c1ccc2c(-c3ccccc3)cccc2c1 [BIT307, (5-phenyl-2-napthoyl)guanidine] | < 0.63 µM | 10 to 50 µM | 0.12 | 0.08 | 2.40 |  |  | 
6 | N=C(N)NC(=O)/C=C/c1cccc2c1CCC2 [BIT222, 3(indan-4-yl)-propenoylguanidine] |  |  | 1.2 | 2.0 | 2.2 | > 10 µM | >10 | > 100 µM
7 | COc1cc2ccccc2cc1C(=O)NC(=N)N [BIT302, (3-methoxy-2-napthoyl)guanidine] | < 2.5 µM | > 50 µM | 1.04 | 0.42 | 0.50 |  |  | 
8 | Cc1ccc2cc(C(=O)NC(=N)N)ccc2c1 [BIT306, (6-methyl-2-napthoyl)guanidine] | < 10 µM | 10 to 50 µM | 0.52 | 0.25 | 2.53 |  |  | 
9 | N=C(N)NC(=O)c1ccc2c(-c3ccsc3)cccc2c1 [BIT224, 5-thiophen-3-yl-2-naphthoylguanidine] |  |  | 2.2 | 1.1 | 1.3 | 1 µM | >100 | > 200 µM
10 | COc1cc(C(=O)NC(=N)N)c(OC)c2ccccc12 [BIT304, (1,4-dimethoxy-2-napthoyl)guanidine] | < 10 µM | 10 to 50 µM | 0.62 | 0.33 | 1.90 |  |  | 
11 | N=C(N)NC(=O)c1ccc2c(Br)cccc2c1 [BIT303, (5-bromo-2-napthoyl)guanidine] | < 2.5 µM | 10 to 50 µM | 0.22 | 0.00 | 2.10 |  |  | 
12 | Cc1nn(C)c(C)c1-c1cccc2cc(C(=O)NC(=N)N)ccc12 [BIT309, (5-(1,3,5-trimethylpyrazol-4-yl)-2-napthoyl)guanidine] | > 10 µM | > 50 µM | 0.12 | 0.00 | 0.00 |  |  | 
13 | CC(C)Cn1cc(-c2cccc3cc(C(=O)NC(=N)N)ccc23)cn1 [BIT310, (5-(1-isobutyl-1H-pyrazol-4-yl)-2-napthoyl)guanidine] | < 2.5 µM | 10 to 50 µM | 0.00 | 0.00 | 1.60 |  |  | 
14 | N=C(N)NC(=O)c1ccc2c(Cl)cccc2c1 [BIT313, (5-chloro-2-napthoyl)guanidine] | < 2.5 µM | 10 to 50 µM | 0.30 | 1.30 | 3.00 |  |  | 
15 | N=C(N)NC(=O)c1ccc2c(C3CC3)cccc2c1 [BIT312, (5-cyclopropyl-2-napthoyl)guanidine] | < 0.63 µM | 10 to 50 µM | 0.50 | 0.80 | 2.25 |  |  | 
16 | N=C(N)NC(=O)c1ccc2c(-c3ccoc3)cccc2c1 [BIT311, (5-(3-furyl)-2-napthoyl)guanidine] | < 0.63 µM | 10 to 50 µM | 0.42 | 0.42 | 1.60 |  |  | 
17 | Cn1cc(-c2cccc3cc(C(=O)NC(=N)N)ccc23)cn1 [BIT225, 5-(1-methylpyrazol-4-yl)2-naphthoylguanidine] |  |  | 1.4 | 1.2 | 0.9 | 2.5 µM | >80 | > 200 µM
18 | COc1c(C(=O)NC(=N)N)ccc2ccccc12 [BIT301, (1-methoxy-2-napthoyl)guanidine] | < 2.5 µM | > 50 µM | 1.54 | 0.25 | 0.50 |  |  | 
19 | N=C(N)NC(=O)c1ccc2cc(-c3ccsc3)ccc2c1 [BIT305, (6-(3-thienyl)-2-napthoyl)guanidine] | < 0.63 µM | < 10 µM | 0.38 | 0.00 | 1.15 |  |  | 
20 | N=C(N)NC(=O)/C=C/c1cccc(C(=O)c2ccccc2)c1 [BIT216, (3-benzoyl)cinnamoylguanidine] |  |  | 1.3 | 1.3 | 1.5 | 0.9 µM | 28-550 | 25 to 495 µM
